Source: patent US20240108006A1, “PESTICIDALLY ACTIVE HETEROAROMATIC COMPOUNDS” (SYNGENTA CROP PROTECTION AG, priority 2021, published 2024)

Columns and labels:
Assay type in all cases: in vivo
Chilo suppressalis = assay: Example B1: Chilo suppressalis (striped rice stemborer), artificial diet, L2 larvae; details: 144 h, application rate of 200 ppm, 6 days after infestation, read-out: control in at least one of the three categories (mortality, anti-feedant effect, or growth inhibition)
Summary of the method: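 L2 larvae (6-8 per well) were placed on dried artificial diet that had been dosed with aqueous dilutions of 10,000 ppm DMSO stock solutions. After 6 days, control was credited if mortality, antifeedant effect or growth inhibition was higher than in untreated samples.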

Diabrotica balteata = assay: Example B2: Diabrotica balteata (corn root worm), maize sprouts, L2 larvae; details: 96 h, application rate of 200 ppm, 4 days after infestation, read-out: control in at least one of the two categories (mortality or growth inhibition)
Method: Example B2: Diabrotica balteata (Corn Root Worm)
Maize sprouts placed onto an agar layer in 24-well microtiter plates were treated with aqueous test solutions prepared from 10,000 ppm DMSO stock solutions by spraying. After drying, the plates were infested with L2 larvae (6 to 10 per well). The samples were assessed for mortality and growth inhibition in comparison to untreated samples 4 days after infestation.
The following compounds gave an effect of at least 80% control in at least one of the two categories (mortality or growth inhibition) at an application rate of 200 ppm: […]

Myzus persicae = assay: Example B7: Myzus persicae (green peach aphid), intrinsic activity, sucrose solution 24-well; details: 120 h, application rate of 12.5 ppm, 5 days after infestation, read-out: control (mortality)
Text: Example B7: Myzus persicae (Green Peach Aphid). Intrinsic Activity
Test compounds prepared from 10,000 ppm DMSO stock solutions were applied by pipette into 24-well microtiter plates and mixed with sucrose solution. The plates were closed with a stretched Parafilm. A plastic stencil with 24 holes was placed onto the plate and infested pea seedlings were placed directly on the Parafilm. The infested plate was closed with a gel blotting paper and another plastic stencil and then turned upside down. The samples were assessed for mortality 5 days after infestation.
The following compounds gave an effect of at least 80% control at an application rate of 12.5 ppm: […]

Plutella xylostella = assay: Example B8: Plutella xylostella (diamond back moth), artificial diet 24-well, eggs; details: 192 h, application rate of 200 ppm, 8 days after infestation, read-out: effect in at least one of the two categories (mortality or growth inhibition)
Summary of the method: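 Plutella eggs placed onto dried, compound-treated artificial diet, the aqueous test solutions diluted from 10,000 ppm DMSO stocks. Eight days post-infestation, larvae rated for mortality and growth inhibition relative to untreated controls.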

Spodoptera littoralis = assay: Example B9: Spodoptera littoralis (Egyptian cotton leaf worm), cotton leaf discs, L1 larvae; details: foliar, 72 h, application rate of 200 ppm, 3 days after infestation, read-out: control in at least one of the three categories (mortality, anti-feedant effect, or growth inhibition)
Summary of the method: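 Five L1 larvae placed on sprayed, dried cotton leaf discs; spray solutions aqueous, from 10,000 ppm DMSO stocks. Control given when mortality, anti-feedant effect or growth inhibition exceeds untreated samples at 3 days.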

C[C@H](NC(=O)Nc1ccc(Cl)c(OC(F)(F)C(F)F)c1)c1ncnn1-c1ncccn1 [Example P35, 1-[4-chloro-3-(1,1,2,2-tetrafluoroethoxy)phenyl]-3-[(1S)-1-(2-pyrimidin-2-yl-1,2,4-triazol-3-yl)ethyl]urea]
≥ 80%: percent control (mortality, anti-feedant effect or growth inhibition) at 200 ppm (Chilo suppressalis) | percent control (mortality or growth inhibition) at 200 ppm (Diabrotica balteata) | mortality at 12.5 ppm (Myzus persicae) | percent effect (mortality or growth inhibition) at 200 ppm (Plutella xylostella) | percent control (mortality, anti-feedant effect or growth inhibition) at 200 ppm (Spodoptera littoralis)

C[C@H](NC(=O)Nc1cc(OC(F)F)c(Cl)cc1Cl)c1ncnn1-c1ncccn1 [Example P272, 1-[2,4-dichloro-5-(difluoromethoxy)phenyl]-3-[(1S)-1-(2-pyrimidin-2-yl-1,2,4-triazol-3-yl)ethyl]urea]
≥ 80%: percent control (mortality, anti-feedant effect or growth inhibition) at 200 ppm (Chilo suppressalis) | percent control (mortality or growth inhibition) at 200 ppm (Diabrotica balteata) | mortality at 12.5 ppm (Myzus persicae) | percent effect (mortality or growth inhibition) at 200 ppm (Plutella xylostella) | percent control (mortality, anti-feedant effect or growth inhibition) at 200 ppm (Spodoptera littoralis)

CC(NC(=O)Nc1cc(OC(F)(F)C(F)F)c(Cl)cc1Cl)c1ncnn1-c1ncccn1 (stereo not drawn) [Example P177, 1-[2,4-dichloro-5-(1,1,2,2-tetrafluoroethoxy)phenyl]-3-[1-(2-pyrimidin-2-yl-1,2,4-triazol-3-yl)ethyl]urea]
≥ 80%: percent control (mortality, anti-feedant effect or growth inhibition) at 200 ppm (Chilo suppressalis) | percent control (mortality or growth inhibition) at 200 ppm (Diabrotica balteata) | mortality at 12.5 ppm (Myzus persicae) | percent effect (mortality or growth inhibition) at 200 ppm (Plutella xylostella) | percent control (mortality, anti-feedant effect or growth inhibition) at 200 ppm (Spodoptera littoralis)

C[C@H](NC(=O)Nc1cc(OC(F)(F)F)c(Cl)cc1F)c1ncnn1-c1ncccn1 [Example P214, 1-[4-chloro-2-fluoro-5-(trifluoromethoxy)phenyl]-3-[(1S)-1-(2-pyrimidin-2-yl-1,2,4-triazol-3-yl)ethyl]urea]
≥ 80%: percent control (mortality, anti-feedant effect or growth inhibition) at 200 ppm (Chilo suppressalis) | percent control (mortality or growth inhibition) at 200 ppm (Diabrotica balteata) | mortality at 12.5 ppm (Myzus persicae) | percent effect (mortality or growth inhibition) at 200 ppm (Plutella xylostella) | percent control (mortality, anti-feedant effect or growth inhibition) at 200 ppm (Spodoptera littoralis)

C[C@H](NC(=O)Nc1cnc(C(F)(F)F)cc1Cl)c1ncnn1-c1ccc(C#N)cn1 [Example P257, 1-[4-chloro-6-(trifluoromethyl)-3-pyridyl]-3-[(1S)-1-[2-(5-cyano-2-pyridyl)-1,2,4-triazol-3-yl]ethyl]urea]
≥ 80%: percent control (mortality, anti-feedant effect or growth inhibition) at 200 ppm (Chilo suppressalis) | percent control (mortality or growth inhibition) at 200 ppm (Diabrotica balteata) | mortality at 12.5 ppm (Myzus persicae) | percent effect (mortality or growth inhibition) at 200 ppm (Plutella xylostella) | percent control (mortality, anti-feedant effect or growth inhibition) at 200 ppm (Spodoptera littoralis)

C[C@H](NC(=O)Nc1cc(OC(F)(F)C(F)C(F)(F)F)c(Cl)cc1Cl)c1ncnn1-c1ncccn1 (stereo partly drawn) [Example P223, 1-[2,4-dichloro-5-(1,1,2,3,3,3-hexafluoropropoxy)phenyl]-3-[(1S)-1-(2-pyrimidin-2-yl-1,2,4-triazol-3-yl)ethyl]urea]
≥ 80%: percent control (mortality, anti-feedant effect or growth inhibition) at 200 ppm (Chilo suppressalis) | percent control (mortality or growth inhibition) at 200 ppm (Diabrotica balteata) | percent effect (mortality or growth inhibition) at 200 ppm (Plutella xylostella) | percent control (mortality, anti-feedant effect or growth inhibition) at 200 ppm (Spodoptera littoralis)

CC(NC(=O)Nc1cc(OC(F)(F)C(F)F)c(Cl)cc1Cl)c1nccnc1-n1nccn1 (stereo not drawn) [Example P258, 1-[2,4-dichloro-5-(1,1,2,2-tetrafluoroethoxy)phenyl]-3-[1-[3-(triazol-2-yl)pyrazin-2-yl]ethyl]urea]
≥ 80%: percent control (mortality, anti-feedant effect or growth inhibition) at 200 ppm (Chilo suppressalis) | percent control (mortality or growth inhibition) at 200 ppm (Diabrotica balteata) | percent effect (mortality or growth inhibition) at 200 ppm (Plutella xylostella)

C[C@H](NC(=O)Nc1cc(C(F)(F)F)c(Cl)cc1Br)c1ncnn1-c1cnccn1 [Example P279, 1-[2-bromo-4-chloro-5-(trifluoromethyl)phenyl]-3-[(1S)-1-(2-pyrazin-2-yl-1,2,4-triazol-3-yl)ethyl]urea]
≥ 80%: percent control (mortality, anti-feedant effect or growth inhibition) at 200 ppm (Chilo suppressalis) | percent control (mortality or growth inhibition) at 200 ppm (Diabrotica balteata) | percent effect (mortality or growth inhibition) at 200 ppm (Plutella xylostella) | percent control (mortality, anti-feedant effect or growth inhibition) at 200 ppm (Spodoptera littoralis)

C[C@H](NC(=O)N1CCc2cc(C(F)(F)F)ccc21)c1ncnn1-c1ncccn1 [Example P57, N-[(1S)-1-(2-pyrimidin-2-yl-1,2,4-triazol-3-yl)ethyl]-5-(trifluoromethyl)indoline-1-carboxamide]
≥ 80%: percent control (mortality or growth inhibition) at 200 ppm (Diabrotica balteata) | mortality at 12.5 ppm (Myzus persicae) | percent effect (mortality or growth inhibition) at 200 ppm (Plutella xylostella) | percent control (mortality, anti-feedant effect or growth inhibition) at 200 ppm (Spodoptera littoralis)

C[C@H](NC(=O)N(C)c1ccc(Cl)cc1Cl)c1ncnn1-c1ncccn1 [Example P114, 1-(2,4-dichlorophenyl)-1-methyl-3-[(1S)-1-(2-pyrimidin-2-yl-1,2,4-triazol-3-yl)ethyl]urea]
≥ 80%: percent control (mortality, anti-feedant effect or growth inhibition) at 200 ppm (Chilo suppressalis) | percent control (mortality or growth inhibition) at 200 ppm (Diabrotica balteata) | percent effect (mortality or growth inhibition) at 200 ppm (Plutella xylostella) | percent control (mortality, anti-feedant effect or growth inhibition) at 200 ppm (Spodoptera littoralis)

C[C@H](NC(=O)Nc1cc(C(F)(F)F)ccc1Cl)c1ncnn1-c1ncccn1 [Example P14, 1-[2-chloro-5-(trifluoromethyl)phenyl]-3-[(1S)-1-(2-pyrimidin-2-yl-1,2,4-triazol-3-yl)ethyl]urea]
≥ 80%: percent control (mortality, anti-feedant effect or growth inhibition) at 200 ppm (Chilo suppressalis) | percent control (mortality or growth inhibition) at 200 ppm (Diabrotica balteata) | percent effect (mortality or growth inhibition) at 200 ppm (Plutella xylostella) | percent control (mortality, anti-feedant effect or growth inhibition) at 200 ppm (Spodoptera littoralis)

C[C@@H](NC(=O)Nc1cc(OC(F)(F)C(F)F)c(Cl)cc1Cl)c1nccnc1-c1ncccn1 [Example P136, 1-[2,4-dichloro-5-(1,1,2,2-tetrafluoroethoxy)phenyl]-3-[(1R)-1-(3-pyrimidin-2-ylpyrazin-2-yl)ethyl]urea]
≥ 80%: percent control (mortality, anti-feedant effect or growth inhibition) at 200 ppm (Chilo suppressalis) | percent control (mortality or growth inhibition) at 200 ppm (Diabrotica balteata) | percent effect (mortality or growth inhibition) at 200 ppm (Plutella xylostella)

C[C@H](NC(=O)Nc1cc(Cl)c(Cl)cc1Cl)c1ncnn1-c1ncccn1 [Example P43, 1-[(1S)-1-(2-pyrimidin-2-yl-1,2,4-triazol-3-yl)ethyl]-3-(2,4,5-trichlorophenyl)urea]
≥ 80%: percent control (mortality, anti-feedant effect or growth inhibition) at 200 ppm (Chilo suppressalis) | percent control (mortality or growth inhibition) at 200 ppm (Diabrotica balteata) | percent effect (mortality or growth inhibition) at 200 ppm (Plutella xylostella) | percent control (mortality, anti-feedant effect or growth inhibition) at 200 ppm (Spodoptera littoralis)

C[C@H](NC(=O)Nc1ccc(C(F)(F)F)cc1C(F)(F)F)c1ncnn1-c1ccc(C#N)cn1 [Example P13, 1-[2,4-bis(trifluoromethyl)phenyl]-3-[(1S)-1-[2-(5-cyano-2-pyridyl)-1,2,4-triazol-3-yl]ethyl]urea]
≥ 80%: percent control (mortality, anti-feedant effect or growth inhibition) at 200 ppm (Chilo suppressalis) | percent control (mortality or growth inhibition) at 200 ppm (Diabrotica balteata) | percent effect (mortality or growth inhibition) at 200 ppm (Plutella xylostella) | percent control (mortality, anti-feedant effect or growth inhibition) at 200 ppm (Spodoptera littoralis)

C[C@H](NC(=O)Nc1cnc(C(F)(F)F)cc1Cl)c1nccnc1-c1ccc(C#N)cn1 [Example P250, 1-[4-chloro-6-(trifluoromethyl)-3-pyridyl]-3-[(1S)-1-[3-(5-cyano-2-pyridyl)pyrazin-2-yl]ethyl]urea]
≥ 80%: percent control (mortality, anti-feedant effect or growth inhibition) at 200 ppm (Chilo suppressalis) | mortality at 12.5 ppm (Myzus persicae) | percent effect (mortality or growth inhibition) at 200 ppm (Plutella xylostella) | percent control (mortality, anti-feedant effect or growth inhibition) at 200 ppm (Spodoptera littoralis)

C[C@H](NC(=O)Nc1cc(C(F)(F)F)c(Cl)cc1Cl)c1ncnn1-c1ncc(C#N)s1 [Example P140, 1-[(1S)-1-[2-(5-cyanothiazol-2-yl)-1,2,4-triazol-3-yl]ethyl]-3-[2,4-dichloro-5-(trifluoromethyl)phenyl]urea]
≥ 80%: percent control (mortality, anti-feedant effect or growth inhibition) at 200 ppm (Chilo suppressalis) | percent control (mortality or growth inhibition) at 200 ppm (Diabrotica balteata) | percent effect (mortality or growth inhibition) at 200 ppm (Plutella xylostella) | percent control (mortality, anti-feedant effect or growth inhibition) at 200 ppm (Spodoptera littoralis)

C[C@H](NC(=O)Nc1cc(C(F)(F)F)cnc1Cl)c1ncnn1-c1ncccn1 [Example P127, 1-[2-chloro-5-(trifluoromethyl)-3-pyridyl]-3-[(1S)-1-(2-pyrimidin-2-yl-1,2,4-triazol-3-yl)ethyl]urea]
≥ 80%: percent control (mortality, anti-feedant effect or growth inhibition) at 200 ppm (Chilo suppressalis) | mortality at 12.5 ppm (Myzus persicae) | percent effect (mortality or growth inhibition) at 200 ppm (Plutella xylostella) | percent control (mortality, anti-feedant effect or growth inhibition) at 200 ppm (Spodoptera littoralis)

CC(NC(=O)Nc1ccc(Br)cc1OC(F)F)c1nccnc1-n1nccn1 (stereo not drawn) [Example P261, 1-[4-bromo-2-(difluoromethoxy)phenyl]-3-[1-[3-(triazol-2-yl)pyrazin-2-yl]ethyl]urea]
≥ 80%: percent control (mortality, anti-feedant effect or growth inhibition) at 200 ppm (Chilo suppressalis) | percent control (mortality or growth inhibition) at 200 ppm (Diabrotica balteata) | percent effect (mortality or growth inhibition) at 200 ppm (Plutella xylostella) | percent control (mortality, anti-feedant effect or growth inhibition) at 200 ppm (Spodoptera littoralis)
